Measurements from EP1914236A1 (Ortho-McNeil Pharmaceutical, Inc., priority 2002, dated 2003).

How the values were obtained:
[1] = molecular target: T1, human B2 bradykinin receptors (Homo sapiens, UniProt P30411); test: Bradykinin B2 (BK2) Receptor Binding Assay; details: membranes of CHO-K1 cells transfected with human B2 bradykinin receptors; ~0.25 nM [3H]NPC17731; 60 min at 25°C
T1 construct: purchased Receptor Biology, Inc. (Baltimore, MD); host or cells: CHO-K1 cells transfected with the human B2 receptor (membranes)
T1 sequence (P30411 1-391): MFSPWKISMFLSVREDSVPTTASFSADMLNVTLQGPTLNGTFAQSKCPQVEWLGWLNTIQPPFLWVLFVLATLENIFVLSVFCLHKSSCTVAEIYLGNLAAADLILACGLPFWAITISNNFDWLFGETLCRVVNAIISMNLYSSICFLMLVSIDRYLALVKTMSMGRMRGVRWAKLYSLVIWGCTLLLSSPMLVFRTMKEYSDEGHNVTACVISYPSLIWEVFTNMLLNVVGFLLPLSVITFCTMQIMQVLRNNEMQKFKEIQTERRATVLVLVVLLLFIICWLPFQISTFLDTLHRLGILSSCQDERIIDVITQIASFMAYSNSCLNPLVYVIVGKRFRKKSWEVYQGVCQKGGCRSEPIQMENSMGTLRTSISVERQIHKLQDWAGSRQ
Procedure: Cell membranes of CHO-K1 cells transfected with human B2 bradykinin receptors (CH)-hB2) were purchased from Receptor Biology, Inc. (Baltimore,MD).
Samples were harvested on a Brandel Cell Harvester on to Wallac filtermat B sheets (96 sample format), and washed three times with 2 mL cold HEPES-buffer (10 mM, pH 7.5), and dried in a microwave oven.
The data were used to calculate either the % inhibition compared to control binding (when only a single concentration of test compound was evaluated) or a Ki value (when a range of concentrations were tested). Background was subtracted from mean cpm values and % inhibition was calculated as: [(total dpm-test compound dpm)/(total dpm-nonspecific dpm)]x100. Kd and Ki values were calculated using GraphPad PRISM data analysis program.

CHO-hB2 cell membranes = molecular target: T2, CHO-hB2 cell membranes (Homo sapiens, UniProt P30411); test: [35S]GTPγS Binding Assay in CHO-hB2 Cell Membranes; format: biochemical; details: for Functional Activity (% Basal): number in parentheses, bradykinin-stimulated [35S]GTPγS binding, test concentration not given; for Functional Activity: word part of the cell, effect on bradykinin-stimulated [35S]GTPγS binding
T2 construct: purchased Receptor Biology, Inc. (Baltimore, MD); host or cells: CHO-hB2 cells (membranes)
T2 sequence (P30411 1-391): T1 sequence (P30411 1-391)
Procedure: CHO-hB2 cell membranes were purchased from Receptor Biology, Inc. (Baltimore,MD). 10 mg/mL of membrane protein was suspended in 10 mM TRIS-HC pH 7.2, 2 mM EDTA, 10% sucrose.
Membranes were added into 15 mL ice cold binding assay buffer. The assay buffer contained 50 mM HEPES, pH 7.6, 5 mM MgCl2, 100 mM NaCl, 1 mM DTT and 1 mM EDTA. The membrane suspension was homogenized twice with a Polytron and centrifuged at 3000 rpm for 10 min. The supernatant was then centrifuged at 18,000 rpm for 20 min. The pellet was saved in a tube and resuspended.
The pellet membranes (40 µg/mL) were preincubated with SPA (scintillation proximity assay) beads (20 mg/mL) at 25C° for 45 min in the assay buffer. The SPA beads (5 mg/mL) coupled with membranes (10 µg/mL) were then incubated with 0.5 nM [^35S]GTPγS in the same HEPES buffer containing 50 µM GDP in total volume of 200 µL. Bradykinin was used to stimulate [^35S]GTPγS binding. Varying concentrations of drugs were incubated with bradykinin to inhibit bradykinin-stimulated [^35S]GTPγS binding. The basal binding was tested in the absence of bradykinin and no specific binding was tested in the present 10 µM unlabeled GTPγS. The radioactivity was quantified on a Packard Top Count, and calculated. % of Basal = (stimulated binding-non specific binding)/(basal binding-non specific binding) × 100. [formula]

| SMILES | Ki [1] | Functional Activity (% Basal) (CHO-hB2 cell membranes) | Functional Activity (CHO-hB2 cell membranes) |
| --- | --- | --- | --- |
| Cc1ccc2cccc(OCc3c(Cl)ccc(N(C)C(=O)Cc4cc(C(=O)c5ccc(C#N)cc5)n(C)c4)c3Cl)c2n1 [Compound 4, 2-[5-(4-Cyano-benzoyl)-1-methyl-1H-pyrrol-3-yl]-N-[2,4-dichloro-3-(2-methyl-quinolin-8-yloxymethyl)-phenyl]-N-methyl-acetamide] | 1350 nM | 24 % Basal | Antagonist |
| COc1ccc(C(=O)c2ccc(CC(=O)N(C)c3ccc(Cl)c(COc4cccc5ccc(C)nc45)c3Cl)[nH]2)cc1 [Compound 5] | 71 nM | 61 % Basal | Antagonist |
| CCCn1c(CC(=O)N(C)c2ccc(Cl)c(COc3cccc4ccc(C)nc34)c2Cl)ccc1C(=O)c1ccc(C#N)cc1 [Compound 9] | 27 nM | 1 % Basal | No effect |
| CCCCn1c(CC(=O)N(C)c2ccc(Cl)c(COc3cccc4ccc(C)nc34)c2Cl)ccc1C(=O)c1ccc(C#N)cc1 [Compound 10] | 29 nM | 1 % Basal | No effect |
| Cc1ccc2cccc(OCc3c(Cl)ccc(N(C)C(=O)Cc4ccc(C(=O)c5ccc(C#N)cc5)n4CC4CC4)c3Cl)c2n1 [Compound 11, 2-[5-(4-Cyano-benzoyl)-1-cyclopropylmethyl-1H-pyrrol-2-yl]-N-[2,4-dichloro-3-(2-methyl-quinolin-8-yloxymethyl)-phenyl]-N-methyl-acetamide] | 48 nM | 1 % Basal | No effect |
| Cc1ccc2cccc(OCc3c(Cl)ccc(N(C)C(=O)Cc4ccc(C(=O)c5ccc(C#N)cc5)n4CC(C)C)c3Cl)c2n1 [Compound 12] | 54 nM | 1 % Basal | No effect |
| Cc1ccc2cccc(OCc3c(Cl)ccc(N(C)C(=O)Cc4ccc(C(=O)c5ccc(C#N)cc5)n4CCC(C)C)c3Cl)c2n1 [Compound 13] | 44 nM | 1 % Basal | No effect |
| Cc1ccc2cccc(OCc3c(Cl)ccc(NC(=O)Cc4ccc(C(=O)c5ccc(C#N)cc5)n4C)c3Cl)c2n1 [Compound 15] | – | – | Weak antagonist |
| CCN(C(=O)Cc1ccc(C(=O)c2ccc(C#N)cc2)n1C)c1ccc(Cl)c(COc2cccc3ccc(C)nc23)c1Cl [Compound 18] | 55 nM | 1 % Basal | No effect |
| Cc1ccc2cccc(OCc3c(Cl)ccc(N(C)C(=O)Cc4ccc(C(=O)CN5CCC(c6ccccc6)CC5)n4C)c3Cl)c2n1 [Compound 58, N-[2,4-Dichloro-3-(2-methyl-quinolin-8-yloxymethyl)-phenyl]-N-methyl-2-{1-methyl-5-[2-(4-phenyl-piperidin-1-yl)-acetyl]-1H-pyrrol-2-yl}-acetamide] | 293 nM | 1 % Basal | No effect |
| Cc1ccc2cccc(OCc3c(Cl)ccc(N(C)C(=O)Cc4ccc(C(=O)CN5CCC(Cc6ccccc6)CC5)n4C)c3Cl)c2n1 [Compound 59] | 291 nM | 1 % Basal | No effect |
| Cc1ccc2cccc(OCc3c(Cl)ccc(N(C)C(=O)Cc4ccc(C(=O)c5cccs5)n4C)c3Cl)c2n1 [Compound 61] | 393 nM | 12 % Basal | Weak antagonist |
| Cc1ccc2cccc(OCc3c(Cl)ccc(N(C)C(=O)Cc4ccc(C(=O)c5ccc(C(=O)N(C)C)cc5)n4C)c3Cl)c2n1 [Compound 62, 4-[5-({[2,4-Dichloro-3-(2-methyl-quinolin-8-yloxymethyl)-phenyl]-methylcarbamoyl}-methyl)-1-methyl-1H-pyrrole-2-carbonyl]-N,N-dimethyl-benzamide] | 204 nM | 59 % Basal | Antagonist |
| Cc1ccc2cccc(OCc3c(C)ccc(N(C)C(=O)Cc4ccc(-c5ccccc5)n4C)c3C)c2n1 [Compound 97, N-[2,4-Dimethyl-3-(2-methyl-quinolin-8-yloxymethyl)-phenyl]-N-methyl-2-(1-methyl-5-phenyl-1 H-pyrrol-2-yl)-acetamide] | 7190 nM | – | – |
| Cc1ccc(-c2ccc(CC(=O)N(C)c3ccc(C)c(COc4cccc5ccc(C)nc45)c3C)n2C)cc1 [Compound 98, N-[2,4-Dimethyl-3-(2-methyl-quinolin-8-yloxymethyl)-phenyl]-N-methyl-2-(1-methyl-5-p-tolyl-1H-pyrrol-2-yl)-acetamide] | 3610 nM | – | – |
| Cc1nc2c(OCc3c(Cl)ccc(N(C)C(=O)Cc4ccc(C(=O)c5ccc(C#N)cc5)n4C)c3Cl)cccn2c1Br [Compound 102, N-[3-(3-Bromo-2-methyl-imidazo[1,2-a]pyridin-8-yloxymethyl)-2,4-dichlorophenyl]-2-[5-(4-cyano-benzoyl)-1-methyl-1H-pyrrol-2-yl]-N-methyl-acetamide] | 47.4 nM | – | – |
| Cc1nc2c(OCc3c(Cl)ccc(N(C)C(=O)Cc4ccc(C(=O)c5ccc(S(C)(=O)=O)cc5)n4C)c3Cl)cccn2c1Br [Compound 103, N-[3-(3-Bromo-2-methyl-imidazo[1,2-a]pyridin-8-yloxymethyl)-2,4-dichlorophenyl]-2-[5-(4-methanesulfonyl-benzoyl)-1-methyl-1H-pyrrol-2-yl]-N-methyl-acetamide] | 68.5 nM | – | – |
| Cc1ccc2cccc(OCc3c(C)ccc(N(C)C(=O)CCc4ccc(C(=O)c5ccccc5)s4)c3C)c2n1 [Compound 104] | 554 nM | – | – |
| Cc1ccc2cccc(OCc3c(Cl)ccc(N(C)C(=O)CCc4ccc(C(=O)c5ccccc5)s4)c3Cl)c2n1 [Compound 105] | 882 nM | – | – |
| COc1ccc(C(=O)c2ccc(CCC(=O)N(C)c3ccc(C)c(COc4cccc5ccc(C)nc45)c3C)s2)cc1 [Compound 106] | 375 nM | – | – |
| COc1ccc(C(=O)c2ccc(CCC(=O)N(C)c3ccc(Cl)c(COc4cccc5ccc(C)nc45)c3Cl)s2)cc1 [Compound 107] | 321 nM | – | – |
| Cc1ccc2cccc(OCc3c(Cl)ccc(N(C)C(=O)Cc4ccc(C(=O)c5ccccc5)s4)c3Cl)c2n1 [Compound 109, 2-(5-Benzoyl-thiophen-2-yl)-N-[2,4-dichloro-3-(2-methyl-quinolin-8-yloxymethyl)-phenyl]-N-methyl-acetamide] | 53 nM | – | – |
| Cc1ccc2cccc(OCc3c(Cl)ccc(N(C)C(=O)Cc4cc(C(=O)c5ccc(C#N)cc5)cs4)c3Cl)c2n1 [Compound 115, 2-[4-(4-Cyano-benzoyl)-thiophen-2-yl]-N-[2,4-dichloro-3-(2-methyl-quinolin-8-yloxymethyl)-phenyl]-N-methyl-acetamide] | 6.4 nM | – | – |
| Cc1ccc2cccc(OCc3cccc(N(C)C(=O)Cc4ccc(C(=O)c5cccc(C#N)c5)n4C)c3Cl)c2n1 [Compound 116, N-[2-Chloro-3-(2-methyl-quinolin-8-yloxymethyl)-phenyl]-2-[5-(3-cyanobenzoyl)-1-methyl-1 H-pyrrol-2-yl]-N-methyl-acetamide] | 17600 nM | – | – |
| Cc1ccc2cccc(OCc3c(Cl)ccc(N(C)C(=O)Cc4ccc(C(=O)c5ccc(N(C)C)cc5)n4C)c3Cl)c2n1 [Compound 118, N-[2,4-Dichloro-3-(2-methyl-quinolin-8-yloxymethyl)-phenyl]-2-[5-(4-dimethylamino-benzoyl)-1-methyl-1H-pyrrol-2-yl]-N-methyl-acetamide] | 428 nM | – | – |
| COc1ccc(C(=O)c2ccc(CC(=O)Nc3ccc(Cl)c(COc4cccc5ccc(C)nc45)c3Cl)n2C)cc1 [Compound 119] | 14000 nM | – | – |
| COc1ccc(C(=O)c2c(C)cc(CC(=O)Nc3ccc(Cl)c(COc4cccc5ccc(C)nc45)c3Cl)n2C)cc1 [Compound 120] | 1560 nM | – | – |
| Cc1ccc2cccc(OCc3c(Cl)ccc(NC(=O)Cc4cc(C)c(C(=O)c5ccc(N)cc5)n4C)c3Cl)c2n1 [Compound 121] | 19800 nM | – | – |
